≈ marks a conversion by molar mass, not a printed value. Where “and” joins values, the source holds several entries; their conditions need not be identical. Equal entries are not always repeated. Where two headings read alike, the source gives them in different places.
Columns and labels:
H. pylori ATCC 700392 = test: anti-Helicobacter pylori activity, microwell dilution method with MTT; assay type: cell-based
Method: The anti-Helicobacter pylori activity of the PF and NPF as well as the isolated compounds was evaluated against H. pylori ATCC 700392 (type strain, obtained from the American Type Culture Collection unit (ATCC), using microwell dilution method and clarithromycin as standard drug[37]. The detailed procedures were described in the supplementary file.
The anti-Helicobacter pylori activity of the PF and NPF as well as the isolated compounds was evaluated against H. pylori ATCC 700392 (a type strain, obtained from the American Type Culture Collection unit (ATCC), using microwell dilution method and clarithromycin as standard drug ^1. The tested samples were prepared in dimethyl sulfoxide and successive ten twofold dilutions (125- 0.24 µg/mL) were carried out in a 96-well plate. Each microplate well included forty μL of Brain Heart Infusion growth medium and 10% fetal bovine serum (FBS), ten μL of inoculum and fifty μL of the tested sample. The plates were incubated for 3 days, in 5% oxygen, 10% carbon dioxide, 85 % nitrogen atmosphere at 37°C. Forty μL of 3- (4, 5-dimethyl-thiazol-2-yl)- 2,5-diphenyl-tetrazolium bromide (MTT) at a final concentration of 0.5 mg/mL freshly prepared in H2O was added to each well and incubated for 30 min. The bacteria were biologically active when change to purple color was observed ^1. While no change in MTT color indicated inhibition. Solvent control (DMSO) and the standard antibiotic (clarithromycin) were used as negative and positive controls, respectively. The H. pylori inhibition % was calculated using the given formula:
% Inhibition = Abs control – Abs sample × 100 /Abs control.

human recombinant COX-2 = molecular target: T1, human recombinant COX-2 (Homo sapiens, UniProt P35354); test: COX-2 inhibitory activity, colourimetric COX inhibitor screening assay kit; assay type: biochemical; settings: for SI (COX-1/COX-2): selectivity index calculated as IC50 (COX-1)/(COX-2)
T1 construct: purchased
T1 sequence (P35354 18-604): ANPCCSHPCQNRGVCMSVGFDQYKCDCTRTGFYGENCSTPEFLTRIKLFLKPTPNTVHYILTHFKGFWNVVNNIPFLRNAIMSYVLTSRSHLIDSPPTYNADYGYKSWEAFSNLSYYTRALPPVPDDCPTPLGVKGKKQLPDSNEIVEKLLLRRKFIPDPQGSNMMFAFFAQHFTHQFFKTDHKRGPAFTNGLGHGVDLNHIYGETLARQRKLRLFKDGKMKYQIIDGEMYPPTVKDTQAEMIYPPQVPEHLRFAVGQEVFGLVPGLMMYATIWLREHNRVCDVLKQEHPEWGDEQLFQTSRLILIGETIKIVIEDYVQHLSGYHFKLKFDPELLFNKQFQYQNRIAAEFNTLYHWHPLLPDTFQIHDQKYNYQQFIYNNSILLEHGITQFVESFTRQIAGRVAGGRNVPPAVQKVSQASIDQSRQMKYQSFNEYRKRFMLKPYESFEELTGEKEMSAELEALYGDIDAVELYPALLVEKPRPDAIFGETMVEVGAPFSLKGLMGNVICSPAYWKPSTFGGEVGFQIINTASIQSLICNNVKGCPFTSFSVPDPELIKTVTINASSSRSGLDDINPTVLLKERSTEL
Method: (§1) The inhibitory COX activity was assayed colourimetrically by examining the inhibition of the ovine COX-1 and human recombinant COX-2 enzymes as described by George et al.[38], using a COX inhibitor screening assay kit. The detailed procedures were described in the supplementary file.
(§2) The inhibitory COX activity was assayed colourimetrically by examining the inhibition of the ovine COX-1 and human recombinant COX-2 enzymes as described by George et al. ^2, using a COX inhibitory screening assay kit. This assay determines the COX peroxidase activity by monitoring the appearance of N,N,N',N'-tetramethyl-p-phenylenediamine (TMPD). Assay buffer (150 μL 0.1 M Tris–HCl pH 8.0), 10 μL heme and 10μL enzyme (COX-1 or COX-2) were added in each well. Ten μL of each tested sample concentration was added to each well and incubated for 15 minutes at 37°C. After incubation, 20 μL of TMPD was added to each well. For initiating the reaction, 10 μL 10 mM arachidonic acid was added and the plates were further incubated for another 2 minutes at 37°C. For terminating the reaction, 50 μL 1 N HCl and saturated stannous chloride were added.
(§3) Reaction mixture containing assay buffer and heme acted as the blank and a mixture with either COX-1 or COX-2 assay buffer and heme acted as the 100% initial activity (IA). […] The absorbances of oxidized TMPD (blue colour) were read in ELISA plate reader at 590 nm. The % inhibition was calculated using the following formula:
(§4) COX % Inhibition= [(100%IA−Inhibitor)/ 100% IA x 100]. Where, IA: 100% initial activity.
(§5) The concentration at which the tested sample produces 50% inhibition of COX-1 and/or COX-2 (IC50) was determined. The selectivity index (SI) was calculated also as IC50 (COX-1)/ (COX-2).

ovine COX-1 = molecular target: T2, ovine COX-1 (Ovis aries, UniProt P05979); test: COX-1 inhibitory activity, colourimetric COX inhibitor screening assay kit; assay type: biochemical; settings: ovine COX-1; ND = not detected
T2 construct: purchased
Method: as §1, §2, §3, §4, §5

[1] = molecular target: T3, Human inosine-5′-monophosphate dehydrogenase (hIMPDH2) (Homo sapiens, UniProt P12268); test: In vitro hIMPDH2 inhibition assay (NADH absorbance at 340 nm); assay type: biochemical; set-up: key to hIMPDH2 inhibitory activity: % hIMPDH2 inhibition; settings: for hIMPDH2 inhibitory activity: in % (unit assumed)
T3 construct: purchased NovoCIB SAS (Lyon, France)
Method: Human inosine-5′-monophosphate dehydrogenase (hIMPDH2) was purchased from NovoCIB SAS (Lyon, France). […] The detailed procedures were described in the supplementary file.
(§6) Thus, irigenin was selected to test its HpIMPDH inhibitory activity by monitoring NADH production at concentration range of 10–0.078 µM compared to clarithromycin as standard drug. Also, to examine irigenin selectivity toward the bacterial IMPDH, human hIMPDH2 inhibition potential was assayed.
Human inosine-5′-monophosphate dehydrogenase (hIMPDH2) was purchased from NovoCIB SAS (Lyon, France). […] The assay was carried out in 96-well plates (Tarsons, 980040). The reaction buffer consisted of hundred mM KCl, hundred mM Tris–HCl (pH 8.6), and five mM DTT, 4% v/v DMSO with or without the tested compound and 0.15 mU of purified hIMPDH2 enzyme per well (from 1.5 mg/mL stock concentration). The enzyme stock solution final volume was 2 μL per well, which was insignificant to cause final assay buffer composition change. Addition of (substrate buffer) 0.2 mM of IMP and 0.2 mM of NAD^+ initiated the assay, then it was allowed to proceed for 30 min at 37 °C. The formed NADH was measured by reading the absorbance at 340 nm. […] The concentration of the tested sample leading to 50% hIMPDH2 inhibition (IC50) was estimated.

[2] = molecular target: T4, H. pylori inosine-5′-monophosphate dehydrogenase (HpIMPDH) (Helicobacter pylori, UniProt P56088); test: In vitro HpIMPDH inhibition assay (NADH fluorescence); assay type: biochemical; set-up: HpIMPDH inhibitory activity: unit not given here
T4 sequence (P56088 1-481): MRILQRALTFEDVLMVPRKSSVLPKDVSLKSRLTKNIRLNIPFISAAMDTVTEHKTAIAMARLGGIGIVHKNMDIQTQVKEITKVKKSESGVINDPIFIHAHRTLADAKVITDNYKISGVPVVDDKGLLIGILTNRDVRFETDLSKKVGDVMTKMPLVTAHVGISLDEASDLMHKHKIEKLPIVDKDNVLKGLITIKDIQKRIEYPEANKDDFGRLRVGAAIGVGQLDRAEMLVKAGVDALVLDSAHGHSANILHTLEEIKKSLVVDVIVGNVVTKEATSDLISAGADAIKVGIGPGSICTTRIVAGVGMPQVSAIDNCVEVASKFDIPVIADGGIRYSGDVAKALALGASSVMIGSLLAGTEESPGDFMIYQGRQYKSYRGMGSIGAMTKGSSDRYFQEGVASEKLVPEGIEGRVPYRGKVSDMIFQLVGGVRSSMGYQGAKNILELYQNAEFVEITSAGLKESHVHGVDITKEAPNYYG
Method: The assay was carried out according to Galal[40] and was described in detail in the supplementary file.
as §6
The assay was carried out in a final volume of two hundred μL in black 96-well plate (Tarsons Products Pvt. Ltd., Kolkata, India) with a reaction buffer composed of one hundred mM KCl, fifty mM Tris–HCl (pH 8.6), and one mM dithiothreitol (DTT). One hundred nM H. pylori inosine-5′-monophosphate dehydrogenase (HpIMPDH) in the presence/absence of the tested compound were used. The assay mixture was then incubated at 37 °C for 10 min, and the reaction was initiated by the adding 250 μM of inosine 5ʹ‐monophosphate (IMP) and 300 μM of nicotinamide adenine dinucleotide (NAD^+) substrate buffer. The assay was allowed to proceed for 45 min at 37 °C.
The formed NADH was measured by recording the fluorescence (excitation 340 nm, emission 440 nm) using PerkinElmer EnVision Multilabel Reader (Waltham, MA) at an interval of one min. DMSO and clarithromycin were used as vehicle control and positive control, respectively. The concentration of the tested sample leading to 50% HpIMPDH inhibition (IC50) was estimated.

[3] = Helicobacter pylori, ATCC700392; read-out: MIC (H. pylori)
[4] = concentration required for 100% inhibition; H. pylori ATCC 700392; ND = not detected
[5] = sample conc. 0.078 (range 10–0.078 µM)
[6] = sample conc. 0.156 (range 10–0.078 µM)
[7] = sample conc. 0.313 (range 10–0.078 µM)
[8] = sample conc. 0.625 (range 10–0.078 µM)
[9] = sample conc. 1.25 (range 10–0.078 µM)
[10] = sample conc. 2.5 (range 10–0.078 µM)
[11] = sample conc. 5 (range 10–0.078 µM)
[12] = sample conc. 10 (range 10–0.078 µM)

T2 sequence (P05979 25-600): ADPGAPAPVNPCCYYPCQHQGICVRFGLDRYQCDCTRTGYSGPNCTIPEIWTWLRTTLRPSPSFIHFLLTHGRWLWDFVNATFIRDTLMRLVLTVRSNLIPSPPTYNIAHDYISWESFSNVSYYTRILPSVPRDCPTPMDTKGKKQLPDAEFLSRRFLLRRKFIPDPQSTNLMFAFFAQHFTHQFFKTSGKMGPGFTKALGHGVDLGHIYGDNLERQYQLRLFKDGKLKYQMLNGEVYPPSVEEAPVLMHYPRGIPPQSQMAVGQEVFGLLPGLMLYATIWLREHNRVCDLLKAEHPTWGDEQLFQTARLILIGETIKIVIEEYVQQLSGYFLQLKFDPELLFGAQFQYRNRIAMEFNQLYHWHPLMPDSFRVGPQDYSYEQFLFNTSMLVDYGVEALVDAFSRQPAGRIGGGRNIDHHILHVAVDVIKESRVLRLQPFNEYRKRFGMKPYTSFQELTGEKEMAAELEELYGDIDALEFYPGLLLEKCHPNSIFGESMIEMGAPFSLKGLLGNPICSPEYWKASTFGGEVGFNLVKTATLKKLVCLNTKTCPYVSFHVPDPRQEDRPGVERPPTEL

What does the source list for `COc1c(O[C@@H]2O[C@H](CO)[C@@H](O)[C@H](O)[C@H]2O)cc2occ(-c3ccc(O)cc3)c(=O)c2c1O` [Tectoridin (P1), tectorigenin-7-O-β-D-glucoside]?
MIC (H. pylori ATCC 700392; [3]): > 125 µg/mL and > 270 µM; MIC (H. pylori) (H. pylori ATCC 700392; [4]): > 125 µg/mL; MIC (H. pylori) (H. pylori ATCC 700392; concentration required for 100% inhibition; H. pylori ATCC 700392; ND = not detected; listed as tectoridine (P1)): no activity; IC50 (COX-2) (human recombinant COX-2; human recombinant COX-2, ND = not detected): no inhibition; IC50 (COX-1) (ovine COX-1): no inhibition

Which MIC (H. pylori ATCC 700392; Helicobacter pylori, ATCC700392, read-out: MIC (H. pylori)) does the source give for `O=c1cc(-c2ccc(O)c(O)c2)oc2c([C@@H]3O[C@H](CO)[C@@H](O)[C@H](O)[C@H]3O)c(O)cc(O)c12` [Orientin (P2), luteolin-8-C-β-glucopyranoside] here?
Its MIC is 15.5 µg/mL and 34.6 µM.

What about the “MIC (H. pylori)” value (H. pylori ATCC 700392; [4]) of the same compound?
The value was 15.53 µg/mL (≈ 34.6 µM).

And the MIC (H. pylori ATCC 700392; concentration required for 100% inhibition; H. pylori ATCC 700392; read-out: MIC (H. pylori))?
Its MIC is 34.64 µM (≈ 15.5 µg/mL).

And the “SI (COX-1/COX-2)” value (human recombinant COX-2)?
The value was 1.58.

Which “MIC (H. pylori)” value (H. pylori ATCC 700392; [4]) does the source give for `CC[C@H](/C=C/[C@@H](C)[C@H]1CC[C@H]2[C@@H]3CC=C4C[C@@H](O)CC[C@]4(C)[C@H]3CC[C@]12C)C(C)C` [Stigmasterol (N2), stigmasterol] here?
Its value is “no H. pylori inhibitory potential”.

What about the “SI (COX-1/COX-2)” value (human recombinant COX-2) of the same compound?
The value was 1.33.

Which MIC (H. pylori ATCC 700392; [3]) does the source give for `CC[C@H]1OC(=O)[C@H](C)[C@@H](O[C@H]2C[C@@](C)(OC)[C@@H](O)[C@H](C)O2)[C@H](C)[C@@H](O[C@@H]2O[C@H](C)C[C@H](N(C)C)[C@H]2O)[C@](C)(OC)C[C@@H](C)C(=O)[C@H](C)[C@@H](O)[C@]1(C)O` [Clarithromycin, clarithromycin, reference compound] here?
Its MIC is 1.95 µg/mL and 2.61 µM.

And the IC50 [1]?
The IC50 was 3.1 ± 2.1 µM.

And the hIMPDH2 inhibitory activity [1, 5]?
The hIMPDH2 inhibitory activity was 0.00.

What about the hIMPDH2 inhibitory activity [1, 6] of the same compound?
Its hIMPDH2 inhibitory activity is 0.00.

What about the hIMPDH2 inhibitory activity [1, 7] of the same compound?
Its hIMPDH2 inhibitory activity is 9.74 ± 0.67.

And the hIMPDH2 inhibitory activity [1, 8]?
Its hIMPDH2 inhibitory activity is 19.35 ± 1.50.

And the hIMPDH2 inhibitory activity [1, 9]?
Its hIMPDH2 inhibitory activity is 27.32 ± 1.70.

What about the hIMPDH2 inhibitory activity [1, 10] of the same compound?
The hIMPDH2 inhibitory activity was 46.32 ± 2.20.

What about the hIMPDH2 inhibitory activity [1, 11] of the same compound?
Its hIMPDH2 inhibitory activity is 60.24 ± 1.50.

What about the hIMPDH2 inhibitory activity [1, 12] of the same compound?
Its hIMPDH2 inhibitory activity is 76.32 ± 0.50.

What about the IC50 [2] of the same compound?
Its IC50 is 0.51 ± 0.58 µM.

What about the HpIMPDH inhibitory activity [2, 5] of the same compound?
Its HpIMPDH inhibitory activity is 9.14 ± 1.70.

And the HpIMPDH inhibitory activity [2, 6]?
The HpIMPDH inhibitory activity was 21.82 ± 2.10.

What about the HpIMPDH inhibitory activity [2, 7] of the same compound?
Its HpIMPDH inhibitory activity is 38.25 ± 1.50.

And the HpIMPDH inhibitory activity [2, 8]?
The HpIMPDH inhibitory activity was 56.06 ± 0.58.

What about the HpIMPDH inhibitory activity [2, 9] of the same compound?
The HpIMPDH inhibitory activity was 69.31 ± 2.10.

And the HpIMPDH inhibitory activity [2, 10]?
Its HpIMPDH inhibitory activity is 81.22 ± 1.60.

What about the HpIMPDH inhibitory activity [2, 11] of the same compound?
The HpIMPDH inhibitory activity was 100 ± 0.00.

And the HpIMPDH inhibitory activity [2, 12]?
Its HpIMPDH inhibitory activity is 100 ± 0.00.
